Results: US20260198526A1, “METHOD FOR PROMOTING DIFFERENTIATION OF ANIMAL CELL” (Ajinomoto Co., Inc., priority 2023, published 2026)

System: chicken muscle stem cells
Test: Muscle differentiation of chicken muscle stem cells in serum-free differentiation medium (MyHC immunocytochemistry, Fusion Index)
Type: cell-based
Settings: additive concentrations of Table 1, second day, FIG. 2
Method: Muscle tissue was collected from edible bovine shank meat, and CD56-positive cells were isolated using a Magnetic-Activated Cell Sorting (MACS) system to obtain bovine muscle stem cells. Separately, muscle stem cells were isolated from edible chicken breast meat.
Then, on the second day, the expression of myosin heavy chain (MyHC) was measured by immunocytochemistry. The cells were fixed with 4% paraformaldehyde (Nacalai Tesque, Cat No. 09154-85) for 15 minutes. After washing twice with Dulbecco's phosphate-buffered saline (without Ca, Mg) (Nacalai Tesque, Cat No. 14249-24), the cells were immersed in Dulbecco's phosphate-buffered saline (without Ca, Mg) containing 0.1% Triton X-100 (Sigma, Cat No. T9284) for 10 minutes. Then, the solution was replaced with a blocking buffer and left to stand for 1 hour. As the blocking buffer, a solution was used in which Dulbecco's phosphate-buffered saline (without Ca, Mg) was supplemented with 5% horse serum and 0.1% Triton X-100. […] MyHC-positive cells were detected with a fluorescence microscope ECLIPSE Ti2-E (Nikon), and the Fusion Index (=Number of MyHC-positive nuclei/Total number of nuclei×100(%)) was calculated. […]
Then, on the second day, the expression of myosin heavy chain (MyHC) was measured by the same method as in (1-2).

OCc1ccccc1O[C@@H]1O[C@H](CO)[C@@H](O)[C@H](O)[C@H]1O [Salicin]
muscle differentiation (MyHC expression, Fusion Index): promoted the muscle differentiation of chicken cells
